24 molecules from patent US11542282B2, “Low affinity poly(AD-ribose) polymerase 1 dependent cytotoxic agents” (THE TRUSTEES OF THE UNIVERSITY OF PENNSYLVANIA, priority 2018, dated 2023) can be followed below.

One assay deals with PARP-1 (Homo sapiens, UniProt P09874). Kind of assay: PARP-1 radioligand binding in live OVCAR8 cells ([125I]KX1 competition). To be noted: for IC50: radioligand binding in OVCAR8 cells. As for the experimental part: (§1) Cells were cultured using standard techniques at 37° C. with 5% CO2 and 15% 02. […] Genetically engineered PARP-1 and PARP-2 double knockout mouse embryonic fibroblast (MEF) were used for cell viability studies with wildtype control. All cells were cultured in RPMI 1640 with 10% FBS and 1% penicillin/streptomycin.
The affinity of each compound for the PARP-1 enzyme was evaluated using a radioligand binding method described in Makvandi, A radiotracer strategy to quantify PARP-1 expression in vivo provides a biomarker that can enable patient selection for PARP inhibitor therapy. Cancer Research 2016. Briefly, OVCAR8 ovarian cancer cells were seeded in 96-well Stripwell plates at a density of 40,000 cells/well 24 hrs prior to the study. On the day of study, compounds were diluted in RPMI to concentrations of 100 μM-0.064 nM. […] Reactions were allowed to equilibrate for 1 hr and were then washed with 200 μL of PBS. Wells were separated and counted on an automatic Wizard gamma counter (Perkin Elmer, Waltham Mass.). […] Experiments were repeated three times with adjusting dose concentrations to increase accuracy of IC50 values.
Compounds 10-17 were evaluated for PARP-1 inhibition using a radioligand binding assay protocol with BRCA1 methylated ovarian cancer cells (OVCAR8) as described above. See, Table 3. […] Compared to 1a, oxaazaspiro analogue 1b performed slightly better with scaffold 10b displaying a PARP-1 binding value of 24.9 nM.

A further assay relates to MEF WT cells. Kind of assay: Cell viability assay in MEF WT cells. The assay is classed as cell-based, mouse. To be noted: NA = Not applicable, no cell death observed. The protocol: (§2) Genetically engineered PARP-1 and PARP-2 double knockout mouse embryonic fibroblast (MEF) were used for cell viability studies with wildtype control.
(§3) Cell viability assays were carried out using four cell lines including OVCAR8, MEF wt, MEF PARP-1 (−/−) KO, and MEF PARP-2 (−/−) KO as described in Makvandi cited above. Briefly, cells were seeded in black wall clear bottom 96-well plates at concentrations of 1,000 cells/well. […] Plates were read on an Enspire multimode plate reader (Perkin Elmer). Data was normalized to percent survival at each concentration evaluated by diving the luminescent signal in treated wells vs. the average of vehicle controls. Experiments were repeated three times and all compounds were assayed during each experiment.
(§4) This isogenic model was selected due to the highly conserved nature of the PARP catalytic domain, all-owing investigation in enzyme specificity.

The test system of assay [1] is MEF PARP-2 (-/-) KO cells. Put plainly: Cell viability assay in MEF PARP-2 KO-/- cells. In kind it is cell-based, mouse. Particulars: NA = Not applicable, no cell death observed. The protocol:
as §2, §3, §4
The cell cytotoxicity profile of these selected compounds in MEF PARP-2 KO−/− cell lines was then analyzed as described above.

Another assay relates to OVCAR8 cells. Put plainly: Cell viability / cytotoxicity assay in OVCAR8 cells (CellTiter Glo). The assay is classed as cell-based. To be noted: Homo sapiens, OVCAR-8, Table 4. The protocol:
as §1
Cell viability assays were carried out using four cell lines including OVCAR8, MEF wt, MEF PARP-1 (−/−) KO, and MEF PARP-2 (−/−) KO as described in Makvandi cited above. Briefly, cells were seeded in black wall clear bottom 96-well plates at concentrations of 1,000 cells/well. After 24 h, cells were then treated with concentrations from 100-0.016 μM. Cells were incubated with compounds for 4-7 days and then assayed for cell viability using the luminescent based assay, CellTiter Glo (Promega, Waltham Mass.). Plates were read on an Enspire multimode plate reader (Perkin Elmer). Data was normalized to percent survival at each concentration evaluated by diving the luminescent signal in treated wells vs. the average of vehicle controls. Experiments were repeated three times and all compounds were assayed during each experiment.
Cytotoxicity was then examined in OVCAR8 cells at 1, 10 and 100 μm concentrations as described above. See, FIGS. 1A-1C.
EC50 values of compounds 18-103 were obtained using OVCAR8 cells. See, Table 4.

Chain of PARP-1 (P09874 whole entry): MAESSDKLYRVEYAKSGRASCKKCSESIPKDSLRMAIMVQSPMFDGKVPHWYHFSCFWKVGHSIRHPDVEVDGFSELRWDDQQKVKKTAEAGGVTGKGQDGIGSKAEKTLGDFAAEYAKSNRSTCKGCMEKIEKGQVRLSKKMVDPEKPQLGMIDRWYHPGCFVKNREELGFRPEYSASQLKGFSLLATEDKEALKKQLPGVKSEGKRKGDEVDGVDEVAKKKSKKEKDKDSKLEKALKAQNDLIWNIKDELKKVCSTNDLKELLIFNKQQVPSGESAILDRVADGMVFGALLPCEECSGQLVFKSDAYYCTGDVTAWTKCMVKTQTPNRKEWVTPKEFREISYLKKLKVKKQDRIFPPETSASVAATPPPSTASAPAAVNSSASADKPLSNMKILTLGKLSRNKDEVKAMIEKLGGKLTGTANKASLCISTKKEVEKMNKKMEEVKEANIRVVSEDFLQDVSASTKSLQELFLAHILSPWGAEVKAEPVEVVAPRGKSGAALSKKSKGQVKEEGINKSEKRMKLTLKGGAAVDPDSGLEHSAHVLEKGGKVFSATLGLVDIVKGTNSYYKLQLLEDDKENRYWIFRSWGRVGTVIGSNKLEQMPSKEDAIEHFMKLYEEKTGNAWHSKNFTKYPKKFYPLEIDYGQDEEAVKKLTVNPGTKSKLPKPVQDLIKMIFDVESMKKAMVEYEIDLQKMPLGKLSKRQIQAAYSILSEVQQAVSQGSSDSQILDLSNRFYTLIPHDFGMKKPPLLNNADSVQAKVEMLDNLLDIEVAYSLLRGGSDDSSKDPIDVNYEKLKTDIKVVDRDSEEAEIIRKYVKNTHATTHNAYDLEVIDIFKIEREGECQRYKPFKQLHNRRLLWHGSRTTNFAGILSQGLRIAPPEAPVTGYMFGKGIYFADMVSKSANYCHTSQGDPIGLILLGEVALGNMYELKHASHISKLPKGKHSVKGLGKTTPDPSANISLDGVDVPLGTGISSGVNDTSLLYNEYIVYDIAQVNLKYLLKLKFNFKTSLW

Take `CC(C)(C)OC(=O)N1CCC2(CC1)CCN2C(=O)c1cc(Cc2n[nH]c(=O)c3ccccc23)ccc1F` [Compound 13b, Tert-butyl 1-(2-fluoro-5-((4-oxo-3,4-dihydrophthalazin-1-yl)methyl)benzoyl)-1,7-diazaspiro[3.5]nonane-7-carboxylate]: the EC50 at PARP-1 is 2.97 µM; in the assay with MEF WT cells (Mus musculus), ~23 µM; in the assay with MEF WT cells, 23.3 µM; in assay [1] (Mus musculus), 33.2 µM.

In the case of `COC1CCN(C(=O)c2cc(Cc3n[nH]c(=O)c4ccccc34)ccc2F)C1` (stereo not drawn) [Compound 24], the EC50 in the assay on OVCAR8 cells was determined as 37.3 ± 1.2 µM; at PARP-1 it was 0.00421 ± 0.0011 µM.

For `COC1CCC(NC(=O)c2cc(Cc3n[nH]c(=O)c4ccccc34)ccc2F)C1` (stereo not drawn) [Compound 21], the EC50 was determined as 17 ± 1.2 µM with OVCAR8 cells and 0.0496 ± 0.0011 µM on PARP-1.

For the molecule `O=C(c1cc(Cc2n[nH]c(=O)c3ccccc23)ccc1F)N1CC[C@H](OCCF)C1` [Compound 29, (S)-4-(4-fluoro-3-(3-(2-fluoroethoxy)pyrrolidine-1-carbonyl)benzyl)phthalazin-1(2H)-one], the figures for the EC50 in the assay on OVCAR8 cells and at PARP-1 were 56.6 µM and 0.00688 µM, respectively.

`O=C(c1cc(Cc2n[nH]c(=O)c3ccccc23)ccc1F)N1CCC2(CCCCC2)CC1` [Compound 17a, 4-(4-Fluoro-3-(3-azaspiro[5.5]undecane-3-carbonyl)benzyl)phthalazin-1(2H)-one]: the EC50 on PARP-1 was 0.0571 ± 0.0012 µM; with MEF WT cells (Mus musculus), 41.3 µM; in assay [1] (Mus musculus) it was 41.3 µM.

With `O=C(c1cc(Cc2n[nH]c(=O)c3ccccc23)ccc1F)N1CCC2(CCN(C(=O)C3CC3)CC2)C1` [Compound 16d, 4-(3-(8-(Cyclopropanecarbonyl)-2,8-diazaspiro[4.5]decane-2-carbonyl)-4-fluorobenzyl)phthalazin-1(2H)-one], the EC50 on PARP-1 is 0.225 µM; with MEF WT cells (Mus musculus), 41.6 µM; in assay [1] (Mus musculus), 61 µM.

For `COC1CCCN(C(=O)c2cc(Cc3n[nH]c(=O)c4ccccc34)ccc2F)CC1` (stereo not drawn) [Compound 25], the EC50 in the assay on OVCAR8 cells came out at 20.2 ± 1.3 µM; on PARP-1 it was 0.00474 ± 0.0011 µM.

Consider `O=C(c1cc(Cc2n[nH]c(=O)c3ccccc23)ccc1F)N1CC2(C1)CN(c1ccc(F)cc1)C2` [Compound 40, 4-(4-fluoro-3-(6-(4-fluorophenyl)-2,6-diazaspiro[3.3]heptane-2-carbonyl)benzyl)phthalazin-1(2H)-one], for which the EC50 was 12 µM in the assay with OVCAR8 cells and 0.000376 µM at PARP-1.

`CC(C)(C)OC(=O)N1CC2(CCN2C(=O)c2cc(Cc3n[nH]c(=O)c4ccccc34)ccc2F)C1` [Compound 11b, Tert-butyl 1-(2-fluoro-5-((4-oxo-3,4-dihydrophthalazin-1-yl)methyl)benzoyl)-1,6-diazaspiro[3.3]heptane-6-carboxylate]: the values for the half-maximal effective concentration (EC50) (in the assay on MEF WT cells (Mus musculus); in assay [1] (Mus musculus)) were 42.9 µM and 35.8 µM, respectively.

As to `COC1CN(C(=O)c2cc(Cc3n[nH]c(=O)c4ccccc34)ccc2F)C1` [Compound 23], the values for the EC50 in the assay on OVCAR8 cells and at PARP-1 were 71.5 ± 1.2 µM and 0.00827 ± 0.0011 µM, respectively.

Consider `O=C(c1cc(Cc2n[nH]c(=O)c3ccccc23)ccc1F)N1CCC12CCCCC2` [Compound 13a, 4-(4-Fluoro-3-(1-azaspiro[3.5]nonane-1-carbonyl)benzyl)phthalazin-(2H)-one], for which the results for the EC50 (at PARP-1; in the assay with MEF WT cells (Mus musculus); in assay [1] (Mus musculus)) were 0.284 ± 0.0012 µM, 32.6 µM and 78.8 µM, respectively.

Regarding `O=C(c1cc(Cc2n[nH]c(=O)c3ccccc23)ccc1F)N1CC2(CCN(C(=O)C3CC3)CC2)C1` [Compound 12d, 4-(3-(7-(Cyclopropanecarbonyl)-2,7-diazaspiro[3.5]nonane-2-carbonyl)-4-fluorobenzyl)phthalazin-1(2H)-one], the EC50 at PARP-1 is 0.1 µM; in the assay with MEF WT cells (Mus musculus), 49.3 µM; in assay [1] (Mus musculus) it was 57.2 µM.

In turn, `CO[C@H]1C[C@H](NC(=O)c2cc(Cc3n[nH]c(=O)c4ccccc34)ccc2F)C1` [Compound 20] gave an EC50 in the assay on OVCAR8 cells of 72.2 µM.

Take `O=C(c1cc(Cc2n[nH]c(=O)c3ccccc23)ccc1F)N1CCC2(CCCC2)C1` [Compound 15a, 4-(4-Fluoro-3-(2-azaspiro[4.4]nonane-2-carbonyl)benzyl)phthalazin-1(2H)-one]: the results for the EC50 (on PARP-1; in the assay on MEF WT cells (Mus musculus); in assay [1] (Mus musculus)) were 0.0514 ± 0.0011 µM, 31.7 µM and 55.5 µM, respectively.

`CC(C)(C)OC(=O)N1CC2(C1)CN(C(=O)c1cc(Cc3n[nH]c(=O)c4ccccc34)ccc1F)C2` [Compound 10c, Tert-butyl 6-(2-fluoro-5-((4-oxo-3,4-dihydrophthalazin-1-yl)methyl)benzoyl)-2,6-diazaspiro[3.3]heptane-2-carboxylate]: the EC50 is 0.552 µM on PARP-1, 31.1 µM in the assay with MEF WT cells (Mus musculus) and 24.7 µM in assay [1] (Mus musculus). The “fold lower PARP-1 affinity compared to the methylene congener” value at PARP-1 (10c vs 10a, 15b vs 15a) is on record as ~16 fold. For the same molecule, the IC50 on PARP-1 was found to be 0.552 µM.

Take `O=C(c1cc(Cc2n[nH]c(=O)c3ccccc23)ccc1F)N1CCC12CCC2` [Compound 11a, 4-(4-Fluoro-3-(I-azaspiro[3.3]heptane-1-carbonyl)benzyl)phthalazin-1(2H)-one]: the results for the EC50 (in the assay on MEF WT cells; in assay [1]) were 48 µM and 58.3 µM, respectively.

For the molecule `O=C(C1CC1)N1CCC2(CC1)CCN2C(=O)c1cc(Cc2n[nH]c(=O)c3ccccc23)ccc1F` [Compound 13d, 4-(3-(7-(Cyclopropanecarbonyl)-1,7-diazaspiro[3.5]nonane-1-carbonyl)-4-fluorobenzyl)phthalazin-1(2H)-one], the EC50 at PARP-1 was 0.431 µM; in the assay on MEF WT cells (Mus musculus), 47.5 µM; in assay [1] (Mus musculus), 44.4 µM.

With `O=C(c1cc(Cc2n[nH]c(=O)c3ccccc23)ccc1F)N1CCC2(CCC2)C1` [Compound 14a, 4-(4-Fluoro-3-(6-azaspiro[3.4]octane-6-carbonyl)benzyl)phthalazin-1(2H)-one], the EC50 at PARP-1 stood at 0.0324 ± 0.0011 µM; with MEF WT cells (Mus musculus), 45.2 µM; in assay [1] (Mus musculus), 54.7 µM.

`O=C(c1cc(Cc2n[nH]c(=O)c3ccccc23)ccc1F)N1CCC12CCNCC2` [Compound 13c, 4-(4-Fluoro-3-(1,7-diazaspiro[3.5]nonane-1-carbonyl)benzyl)phthalazin-1(2H)-one]: on PARP-1, the EC50 is 0.11 µM and the IC50 came to 0.11 µM. Moreover, on PARP-1 (13c vs 13b), the “fold improvement of PARP-1 affinity upon removing the boc-group” value is ~29 fold. The midpoint of the response in assay [1] (Mus musculus), the EC50, lay at 106 µM.

As for `O=C(c1cc(Cc2n[nH]c(=O)c3ccccc23)ccc1F)N1CC2(CCNCC2)C1` [Compound 12c, 4-(4-Fluoro-3-(2,7-diazaspiro[3.5]nonane-2-carbonyl)benzyl)phthalazin-1(2H)-one], the EC50 was 1.42 µM on PARP-1 and 68.5 µM in assay [1] (Mus musculus). In addition, at PARP-1 (free-amine derivatives), the “enzyme affinity in contrast to respective boc-protected analogue” value is recorded as “slight increase in enzyme affinity”.

Consider `O=C(c1cc(Cc2n[nH]c(=O)c3ccccc23)ccc1F)N1CC2(CCC2)C1` [Compound 10a, 4-(4-Fluoro-3-(2-azaspiro[3.3]heptane-2-carbonyl)benzyl)phthalazin-1(2H)-one], for which the EC50 at PARP-1 turned out to be 0.0339 ± 0.0015 µM; with MEF WT cells (Mus musculus), 48.3 µM; in assay [1] (Mus musculus), 49 µM.

As to `O=C(c1cc(Cc2n[nH]c(=O)c3ccccc23)ccc1F)N1CC2(COC2)C1` [Compound 10b, 4-(4-Fluoro-3-(2-oxa-6-azaspiro[3.3]heptane-6-carbonyl)benzyl)phthalazin-1(2H)-one], the EC50 was 0.0249 µM at PARP-1, 52.2 µM in the assay with MEF WT cells (Mus musculus) and 53.3 µM in assay [1] (Mus musculus). Further, on PARP-1, the IC50 came out at 0.0249 µM.

As for `CC(C)(C)OC(=O)N1CC2(CCN(C(=O)c3cc(Cc4n[nH]c(=O)c5ccccc45)ccc3F)C2)C1` [Compound 14b], the EC50 on PARP-1 is 1.19 µM; in the assay with MEF WT cells (Mus musculus), 29.2 µM; in assay [1] (Mus musculus) it was 31.8 µM.

Take `O=C(C1CC1)N1CC2(CCN2C(=O)c2cc(Cc3n[nH]c(=O)c4ccccc34)ccc2F)C1` [Compound 11d, 4-(3-(6-(Cyclopropanecarbonyl)-1,6-diazaspiro[3.3]heptane-1-carbonyl)-4-fluorobenzyl)phthalazin-1(2H)-one]: the values for the EC50 (in the assay with MEF WT cells (Mus musculus); in assay [1] (Mus musculus)) were 53.2 µM and 46.7 µM, respectively.
